Reference: ChEMBL document CHEMBL3132744, “Structureactivity relationship studies of miniproteins targeting the androgen receptorcoactivator interaction” (Medchemcomm, 2013)
Square brackets hold non-standard residues; d marks the D form. Peptide text beside a SMILES is read from it. Phe(4-Cl) = N[C@@H](Cc1ccc(Cl)cc1)C(=O)O; Phe(2-Cl) = N[C@@H](Cc1ccccc1Cl)C(=O)O

Target: T1, Androgen receptor (Homo sapiens, UniProt P10275)
T1 sequence (P10275 whole entry): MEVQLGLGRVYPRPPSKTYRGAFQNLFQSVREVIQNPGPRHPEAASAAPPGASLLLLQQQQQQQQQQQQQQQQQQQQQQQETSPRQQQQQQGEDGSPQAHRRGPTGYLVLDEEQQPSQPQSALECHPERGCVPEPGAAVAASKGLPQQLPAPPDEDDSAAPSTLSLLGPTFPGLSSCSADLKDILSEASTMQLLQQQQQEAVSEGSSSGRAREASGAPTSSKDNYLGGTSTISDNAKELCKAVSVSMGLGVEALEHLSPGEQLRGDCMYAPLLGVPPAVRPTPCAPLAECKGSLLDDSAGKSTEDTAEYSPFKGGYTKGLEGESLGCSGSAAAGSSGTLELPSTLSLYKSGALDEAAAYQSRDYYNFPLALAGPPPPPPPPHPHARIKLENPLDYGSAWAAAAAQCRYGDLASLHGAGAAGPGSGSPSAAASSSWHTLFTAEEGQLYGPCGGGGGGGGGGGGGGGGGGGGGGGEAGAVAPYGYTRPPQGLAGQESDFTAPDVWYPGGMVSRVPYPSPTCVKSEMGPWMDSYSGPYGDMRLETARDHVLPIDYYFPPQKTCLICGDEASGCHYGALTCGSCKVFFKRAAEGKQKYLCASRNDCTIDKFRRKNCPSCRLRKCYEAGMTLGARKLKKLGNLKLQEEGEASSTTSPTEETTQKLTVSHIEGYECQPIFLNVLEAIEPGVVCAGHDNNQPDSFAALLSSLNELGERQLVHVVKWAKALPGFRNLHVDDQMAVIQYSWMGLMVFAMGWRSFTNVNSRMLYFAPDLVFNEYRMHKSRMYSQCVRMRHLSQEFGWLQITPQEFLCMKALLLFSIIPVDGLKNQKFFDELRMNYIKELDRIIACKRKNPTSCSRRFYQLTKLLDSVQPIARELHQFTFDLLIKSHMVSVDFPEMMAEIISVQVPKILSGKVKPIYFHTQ
Assay: Displacement of fluorescein-CSSRFESLFAGEKESR from human androgen receptor-LBD after 1 hr by fluorescence polarization assay

Structure (SMILES) | Ki
CC(C)C[C@H](NC(=O)[C@H](CS)NC(=O)[C@H](CC(N)=O)NC(=O)[C@H](Cc1ccccc1)NC(=O)[C@H](CCCNC(=N)N)NC(=O)[C@H](CS)NC(=O)[C@H](C)N)C(=O)N[C@@H](Cc1ccccc1)C(=O)N[C@@H](CCC(=O)O)C(=O)NCC(=O)N[C@@H](CC(N)=O)C(=O)N[C@@H](CC(=O)O)C(=O)N[C@@H](CCC(=O)O)C(=O)N[C@@H](CCC(=O)O)C(=O)N[C@H](C(=O)N[C@@H](CS)C(=O)N[C@@H](CCCCN)C(=O)N[C@@H](CCC(=O)O)C(=O)N[C@@H](Cc1c[nH]c2ccccc12)C(=O)N[C@@H](CS)C(=O)O)[C@@H](C)O (H-ACRFNCLFEGNDEETCKEWC-OH) | 12 µM
CC(C)C[C@H](NC(=O)[C@H](CS)NC(=O)[C@H](Cc1cnc[nH]1)NC(=O)[C@H](Cc1ccccc1)NC(=O)[C@H](Cc1ccc(O)cc1)NC(=O)[C@H](CS)NC(=O)[C@H](C)N)C(=O)N[C@@H](Cc1ccccc1)C(=O)N[C@@H](CCC(=O)O)C(=O)NCC(=O)N[C@@H](CC(N)=O)C(=O)N[C@@H](CC(=O)O)C(=O)N[C@@H](CCC(=O)O)C(=O)N[C@@H](CCC(=O)O)C(=O)N[C@H](C(=O)N[C@@H](CS)C(=O)N[C@@H](CCCCN)C(=O)N[C@@H](CCC(=O)O)C(=O)N[C@@H](Cc1c[nH]c2ccccc12)C(=O)N[C@@H](CS)C(=O)O)[C@@H](C)O (H-ACYFHCLFEGNDEETCKEWC-OH) | 7 µM
CC[C@H](C)[C@H](NC(=O)[C@H](CS)NC(=O)[C@H](Cc1ccc(Cl)cc1)NC(=O)[C@H](CC(C)C)NC(=O)[C@H](CCC(=O)O)NC(=O)[C@H](CS)NC(=O)[C@H](Cc1ccccc1)NC(=O)[C@H](CCCNC(=N)N)NC(=O)[C@@H](N)CC(N)=O)C(=O)N[C@@H](CCC(N)=O)C(=O)NCC(=O)N[C@H](C(=O)NCC(=O)N[C@@H](CC(=O)O)C(=O)N[C@H](C(=O)N[C@@H](CCCCN)C(=O)N[C@@H](C)C(=O)N[C@@H](CS)C(=O)N[C@@H](CCC(=O)O)C(=O)N[C@@H](Cc1c[nH]c2ccccc12)C(=O)N[C@@H](C)C(=O)N[C@@H](CS)C(=O)N[C@@H](CCC(N)=O)C(=O)O)C(C)C)[C@@H](C)O (H-NRFCEL[Phe(4-Cl)]CIQGTGDVKACEWACQ-OH) | 32 µM
CC(C)C[C@H](NC(=O)[C@H](CS)NC(=O)[C@H](CC(N)=O)NC(=O)[C@H](Cc1ccccc1)NC(=O)[C@H](Cc1ccc(O)cc1)NC(=O)[C@H](CS)NC(=O)[C@H](C)N)C(=O)N[C@@H](Cc1ccccc1)C(=O)N[C@@H](CCC(=O)O)C(=O)NCC(=O)N[C@@H](CCC(=O)O)C(=O)N[C@@H](CC(=O)O)C(=O)N[C@@H](CCC(=O)O)C(=O)N[C@@H](CCC(=O)O)C(=O)N[C@H](C(=O)N[C@@H](CS)C(=O)N[C@@H](CCCCN)C(=O)N[C@@H](CCC(=O)O)C(=O)N[C@@H](Cc1c[nH]c2ccccc12)C(=O)N[C@@H](CS)C(=O)O)[C@@H](C)O (H-ACYFNCLFEGEDEETCKEWC-OH) | 0.2 µM
CC(C)C[C@H](NC(=O)[C@H](CS)NC(=O)[C@H](CC(N)=O)NC(=O)[C@H](Cc1ccccc1)NC(=O)[C@H](Cc1ccc(O)cc1)NC(=O)[C@H](CS)NC(=O)[C@H](C)N)C(=O)N[C@@H](Cc1ccc(Cl)cc1)C(=O)N[C@@H](CCC(=O)O)C(=O)NCC(=O)N[C@@H](CC(N)=O)C(=O)N[C@@H](CC(=O)O)C(=O)N[C@@H](CCC(=O)O)C(=O)N[C@@H](CCC(=O)O)C(=O)N[C@H](C(=O)N[C@@H](CS)C(=O)N[C@@H](CCCCN)C(=O)N[C@@H](CCC(=O)O)C(=O)N[C@@H](Cc1c[nH]c2ccccc12)C(=O)N[C@@H](CS)C(=O)O)[C@@H](C)O (H-ACYFNCL[Phe(4-Cl)]EGNDEETCKEWC-OH) | 0.6 µM
CC[C@H](C)[C@H](NC(=O)[C@H](CS)NC(=O)[C@H](Cc1ccccc1)NC(=O)[C@H](CC(C)C)NC(=O)[C@H](CCC(=O)O)NC(=O)[C@H](CS)NC(=O)[C@H](Cc1ccccc1Cl)NC(=O)[C@H](CCCNC(=N)N)NC(=O)[C@@H](N)CC(N)=O)C(=O)N[C@@H](CCC(N)=O)C(=O)NCC(=O)N[C@H](C(=O)NCC(=O)N[C@@H](CC(=O)O)C(=O)N[C@H](C(=O)N[C@@H](CCCCN)C(=O)N[C@@H](C)C(=O)N[C@@H](CS)C(=O)N[C@@H](CCC(=O)O)C(=O)N[C@@H](Cc1c[nH]c2ccccc12)C(=O)N[C@@H](C)C(=O)N[C@@H](CS)C(=O)N[C@@H](CCC(N)=O)C(=O)O)C(C)C)[C@@H](C)O (H-NR[Phe(2-Cl)]CELFCIQGTGDVKACEWACQ-OH) | 2.2 µM
CC[C@H](C)[C@H](NC(=O)[C@H](CS)NC(=O)[C@H](Cc1ccccc1)NC(=O)[C@H](CC(C)C)NC(=O)[C@H](CCC(=O)O)NC(=O)[C@H](CS)NC(=O)[C@H](Cc1ccccc1)NC(=O)[C@H](CC(C)C)NC(=O)[C@@H](N)CC(N)=O)C(=O)N[C@@H](CCC(N)=O)C(=O)NCC(=O)N[C@H](C(=O)NCC(=O)N[C@@H](CC(=O)O)C(=O)N[C@H](C(=O)N[C@@H](CCCCN)C(=O)N[C@@H](C)C(=O)N[C@@H](CS)C(=O)N[C@@H](CCC(=O)O)C(=O)N[C@@H](Cc1c[nH]c2ccccc12)C(=O)N[C@@H](C)C(=O)N[C@@H](CS)C(=O)N[C@@H](CCC(N)=O)C(=O)O)C(C)C)[C@@H](C)O (H-NLFCELFCIQGTGDVKACEWACQ-OH) | 10 µM
CC(C)C[C@H](NC(=O)[C@H](CS)NC(=O)[C@H](CC(N)=O)NC(=O)[C@H](Cc1ccccc1)NC(=O)[C@H](Cc1ccc(O)cc1)NC(=O)[C@H](CS)NC(=O)[C@H](C)N)C(=O)N[C@@H](Cc1ccccc1Cl)C(=O)N[C@@H](CCC(=O)O)C(=O)NCC(=O)N[C@@H](CC(N)=O)C(=O)N[C@@H](CC(=O)O)C(=O)N[C@@H](CCC(=O)O)C(=O)N[C@@H](CCC(=O)O)C(=O)N[C@H](C(=O)N[C@@H](CS)C(=O)N[C@@H](CCCCN)C(=O)N[C@@H](CCC(=O)O)C(=O)N[C@@H](Cc1c[nH]c2ccccc12)C(=O)N[C@@H](CS)C(=O)O)[C@@H](C)O (H-ACYFNCL[Phe(2-Cl)]EGNDEETCKEWC-OH) | 3 µM
CC[C@H](C)[C@H](NC(=O)[C@H](CS)NC(=O)[C@H](Cc1ccccc1Cl)NC(=O)[C@H](CC(C)C)NC(=O)[C@H](CCC(=O)O)NC(=O)[C@H](CS)NC(=O)[C@H](Cc1ccccc1)NC(=O)[C@H](CCCNC(=N)N)NC(=O)[C@@H](N)CC(N)=O)C(=O)N[C@@H](CCC(N)=O)C(=O)NCC(=O)N[C@H](C(=O)NCC(=O)N[C@@H](CC(=O)O)C(=O)N[C@H](C(=O)N[C@@H](CCCCN)C(=O)N[C@@H](C)C(=O)N[C@@H](CS)C(=O)N[C@@H](CCC(=O)O)C(=O)N[C@@H](Cc1c[nH]c2ccccc12)C(=O)N[C@@H](C)C(=O)N[C@@H](CS)C(=O)N[C@@H](CCC(N)=O)C(=O)O)C(C)C)[C@@H](C)O (H-NRFCEL[Phe(2-Cl)]CIQGTGDVKACEWACQ-OH) | 0.4 µM
CC(C)C[C@H](NC(=O)[C@H](CS)NC(=O)[C@H](C)N)C(=O)N[C@@H](Cc1ccccc1)C(=O)N[C@@H](CC(N)=O)C(=O)N[C@@H](CS)C(=O)N[C@@H](CC(C)C)C(=O)N[C@@H](Cc1ccccc1)C(=O)N[C@@H](CCC(=O)O)C(=O)NCC(=O)N[C@@H](CC(N)=O)C(=O)N[C@@H](CC(=O)O)C(=O)N[C@@H](CCC(=O)O)C(=O)N[C@@H](CCC(=O)O)C(=O)N[C@H](C(=O)N[C@@H](CS)C(=O)N[C@@H](CCCCN)C(=O)N[C@@H](CCC(=O)O)C(=O)N[C@@H](Cc1c[nH]c2ccccc12)C(=O)N[C@@H](CS)C(=O)O)[C@@H](C)O (H-ACLFNCLFEGNDEETCKEWC-OH) | 3 µM
